Laboratory results published in patent publication US20240336638A1, “IMIDAZOLE COMPOUND, AND INTERMEDIATE AND APPLICATION THEREOF” (priority 2021, published 2024).
Like-named read-outs stand apart in the source and are kept apart here.

Legend:
[1] = Pharmacokinetics in SD rats after single IV and PO administration, plasma; type: in vivo; details: for Vd / AUC(0-inf) / AUC(0-t) / C0 / Cmax / Tmax / half-life / MRT last / MRT inf / bioavailability: Sprague-Dawley (SD), rat plasma; for Vd: rat, plasma, iv, 1 mg/kg; for MRT last: read-out: MRT(0−t); for MRT inf: read-out: MRT(0−∞); for bioavailability: PO 6 mg/kg vs IV 1 mg/kg
Protocol: The experimental method of administration by gavage injection in rats: SD rats weighing 180 to 220 g were fasted for 12 hours prior to the experiment, with free access to water. After administration, food and water were withheld for 4 hours. After this 4-hour period, the rats were allowed free access to water, and food was provided after 8 hours. The drugs were administered at a set dose. N=3, blood samples were taken before administration, and 5 minutes, 0.25 hours, 0.5 hours, 0.75 hours, 1 hour, 2 hours, 4 hours, 8 hours, and 24 hours after administration, respectively, and placed into sodium heparin anticoagulant tubes. The tubes were centrifuged for 1 hour at 4° C. and at 8000 rpm for 5 minutes, and the plasma was then separated and stored in centrifuge tubes at −70° C. for analysis. The experimental method of intravenous administration to rats: SD rats weighing 180 to 220 g were fasted for 12 hours prior to the experiment, with free access to water. After administration, food and water were withheld for 4 hours. After this 4-hour period, the rats were allowed free access to water, and food was provided after 8 hours. The drugs were administered at a set dose. N=3, blood samples were taken before administration, and 5 minutes, 0.25 hours, 0.5 hours, 0.75 hours, 1 hour, 2 hours, 4 hours, 8 hours, and 24 hours after administration, respectively, and placed into sodium heparin anticoagulant tubes. The tubes were centrifuged for 1 hour at 4° C. and at 8000 rpm for 5 minutes, and the plasma was then separated and stored in centrifuge tubes at −70° C. for analysis. The plasma concentration-time data were processed using the Phoenix® WinNonlin® 8.0 program to calculate pharmacokinetic parameters. Among them, Cmax and Tmax are measured values, the elimination rate constant k of the tail section of the C-t curve is obtained from the linear regression of LnC-t, and the value of AUC0-4 is calculated by the trapezoidal area method, and the area under the curve from 0 to ∞ time is AUC=AUC0-4+Ct/k. [table]

[2] = Blood-brain barrier (BBB) study in SD rats after single IV and PO administration, brain; type: in vivo; details: for Cmax / Tmax / half-life / MRT last / MRT inf: Sprague-Dawley (SD); for MRT last: read-out: MRT(0−t); for MRT inf: read-out: MRT(0−∞); for T1/2 and AUC(0-∞) in the brain tissue: compared to Ozagrel
Protocol: Effect Example 3: Pharmacokinetic and blood-brain barrier (BBB) studies of compounds after single intravenous (IV) and oral (PO) administration in SD rats
(§1) The experimental method of administration by gavage injection in rats: SD rats weighing 180 to 220 g were fasted for 12 hours prior to the experiment, with free access to water. After administration, food and water were withheld for 4 hours. After this 4-hour period, the rats were allowed free access to water, and food was provided after 8 hours. The drugs were administered at a set dose. N=3, blood samples were taken before administration, and 5 minutes, 0.25 hours, 0.5 hours, 0.75 hours, 1 hour, 2 hours, 4 hours, 8 hours, and 24 hours after administration, respectively, and placed into sodium heparin anticoagulant tubes. The tubes were centrifuged for 1 hour at 4° C. and at 8000 rpm for 5 minutes, and the plasma was then separated and stored in centrifuge tubes at −70° C. for analysis.
as §1, with “of intravenous” for “of”, “to” for “by gavage injection in”
The plasma concentration-time data were processed using the Phoenix® WinNonlin® 8.0 program to calculate pharmacokinetic parameters.
Among them, Cmax and Tmax are measured values, the elimination rate constant k of the tail section of the C-t curve is obtained from the linear regression of LnC-t, and the value of AUC0-4 is calculated by the trapezoidal area method, and the area under the curve from 0 to ∞ time is AUC=AUC0-4+Ct/k.

## O=C(O)[C@@H]1C[C@H]1c1ccc(Cn2cnc(Cl)c2)c(Cl)c1 [Compound 11, (1R,2R)-2-(3-Chloro-4-((4-chloro-1H-imidazol-1-yl)methyl)phenyl)cyclopropane-1-carboxylic acid]
[1]; IV 1 mg/kg, read-out: Vss
  Vd: 0.22 L/kg
[1]; IV 1 mg/kg, read-out: Vz
  Vd: 0.22 L/kg
[1]; IV 1 mg/kg
  AUC(0-inf): 228 µg·h/mL
  AUC(0-t): 86.4 µg·h/mL
  C0: 5150 ng/mL
  Cmax: 5140 ng/mL
  Tmax: 0.083 h
  half-life: 34.8 h
  MRT last: 10.5 h
  MRT inf: 50.1 h
[1]; PO 6 mg/kg
  AUC(0-inf): 1700 µg·h/mL
  AUC(0-t): 587 µg·h/mL
  Cmax: 32400 ng/mL
  Tmax: 4 h
  half-life: 37 h
  MRT last: 11 h
  MRT inf: 54.4 h
[1]
  bioavailability: 113%
[1]; intravenously at 1 mg/kg
  T1/2 and AUC(0-∞) in the whole body blood circulation system as compared to that of Ozagrel: significantly increased
[1]; orally at 6 mg/kg
  T1/2 and AUC(0-∞) in the whole body blood circulation system as compared to that of Ozagrel: significantly increased
[2]; rat brain, IV 1 mg/kg
  Cmax: 57.5 ng/g
  Tmax: 1 h
  half-life: 19.5 h
  MRT last: 9.49 h
  MRT inf: 27.4 h
  AUC(0−t): 855.25 ng·h/g
  AUC(0−∞): 1475.23 ng·h/g
[2]; rat brain, PO 6 mg/kg
  Cmax: 385 ng/g
  Tmax: 4 h
  half-life: 19.7 h
  MRT last: 9.94 h
  MRT inf: 28.5 h
  AUC(0−t): 7014.55 ng·h/g
  AUC(0−∞) (h*ng/g): 12,439.74 h*ng/g
[2]; intravenously at 1 mg/kg
  T1/2 and AUC(0-∞) in the brain tissue: significantly increased
[2]; orally at 6 mg/kg
  T1/2 and AUC(0-∞) in the brain tissue: significantly increased

## O=C(O)[C@@H]1C[C@H]1c1ccc(Cn2ccnc2)c(F)c1 [Compound 15, (1R,2R)-2-(4-((1H-Imidazol-1-yl)methyl)-3-fluorophenyl)cyclopropane-1-carboxylic acid]
[1]; IV 1 mg/kg, read-out: Vss
  Vd: 0.34 L/kg
[1]; IV 1 mg/kg, read-out: Vz
  Vd: 0.38 L/kg
[1]; IV 1 mg/kg
  AUC(0-inf): 3.44 µg·h/mL
  AUC(0-t): 3.43 µg·h/mL
  C0: 3710 ng/mL
  Cmax: 3160 ng/mL
  Tmax: 0.083 h
  half-life: 0.91 h
  MRT last: 1.14 h
  MRT inf: 1.16 h
[1]; PO 6 mg/kg
  AUC(0-inf): 80.7 µg·h/mL
  AUC(0-t): 78.4 µg·h/mL
  Cmax: 18600 ng/mL
  Tmax: 1 h
  half-life: 1.51 h
  MRT last: 2.57 h
  MRT inf: 2.79 h
[1]
  bioavailability: 381%
[1]; intravenously at 1 mg/kg
  T1/2 and AUC(0-∞) in the whole body blood circulation system as compared to that of Ozagrel: significantly increased
[1]; orally at 6 mg/kg
  T1/2 and AUC(0-∞) in the whole body blood circulation system as compared to that of Ozagrel: significantly increased
[2]; rat brain, IV 1 mg/kg
  Cmax: 41.2 ng/g
  Tmax: 0.08 h
  half-life: 2.2 h
  MRT last: 0.82 h
  MRT inf: 3.05 h
  AUC(0−t): 33.91 ng·h/g
  AUC(0−∞): 69.74 ng·h/g
[2]; rat brain, PO 6 mg/kg
  Cmax: 199 ng/g
  Tmax: 1 h
  half-life: 1.7 h
  MRT last: 2.56 h
  MRT inf: 2.91 h
  AUC(0−t): 815.87 ng·h/g
  AUC(0−∞): 853.63 ng·h/g
[2]; intravenously at 1 mg/kg
  T1/2 and AUC(0-∞) in the brain tissue: significantly increased
[2]; orally at 6 mg/kg
  T1/2 and AUC(0-∞) in the brain tissue: significantly increased

## O=C(O)[C@@H]1C[C@H]1c1ccc(Cn2cnc(F)c2)cc1F [Compound 17, (1R,2R)-2-(2-Fluoro-4-((4-fluoro-1H-imidazol-1-yl)methyl)phenyl)cyclopropane-1-carboxylic acid]
[1]; IV 1 mg/kg, read-out: Vss
  Vd: 0.22 L/kg
[1]; IV 1 mg/kg, read-out: Vz
  Vd: 0.27 L/kg
[1]; IV 1 mg/kg
  AUC(0-inf): 17.6 µg·h/mL
  AUC(0-t): 17.5 µg·h/mL
  C0: 7320 ng/mL
  Cmax: 6840 ng/mL
  Tmax: 0.083 h
  half-life: 3.24 h
  MRT last: 3.8 h
  MRT inf: 3.91 h
[1]; PO 6 mg/kg
  AUC(0-inf): 179 µg·h/mL
  AUC(0-t): 178 µg·h/mL
  Cmax: 27200 ng/mL
  Tmax: 2 h
  half-life: 2.96 h
  MRT last: 4.16 h
  MRT inf: 4.25 h
[1]
  bioavailability: 169%
[1]; intravenously at 1 mg/kg
  T1/2 and AUC(0-∞) in the whole body blood circulation system as compared to that of Ozagrel: significantly increased
[1]; orally at 6 mg/kg
  T1/2 and AUC(0-∞) in the whole body blood circulation system as compared to that of Ozagrel: significantly increased
[2]; rat brain, IV 1 mg/kg
  Cmax: 84.1 ng/g
  Tmax: 0.08 h
  half-life: 3.72 h
  MRT last: 2.53 h
  MRT inf: 4.7 h
  AUC(0−t): 169.74 ng·h/g
  AUC(0−∞): 212.39 ng·h/g
[2]; rat brain, PO 6 mg/kg
  Cmax: 323 ng/g
  Tmax: 2 h
  half-life: 2.82 h
  MRT last: 4.53 h
  MRT inf: 4.6 h
  AUC(0−t): 2329.55 ng·h/g
  AUC(0−∞): 2336.46 ng·h/g
[2]; intravenously at 1 mg/kg
  T1/2 and AUC(0-∞) in the brain tissue: significantly increased
[2]; orally at 6 mg/kg
  T1/2 and AUC(0-∞) in the brain tissue: significantly increased

## O=C(O)[C@@H]1C[C@H]1c1ccc(Cn2cnc(F)c2)c(Cl)c1 [Compound 18, (1R,2R)-2-(3-Chloro-4-((4-fluoro-1H-imidazol-1-yl)methyl)phenyl)cyclopropane-1-carboxylic acid]
[1]; IV 1 mg/kg, read-out: Vss
  Vd: 0.2 L/kg
[1]; IV 1 mg/kg, read-out: Vz
  Vd: 0.21 L/kg
[1]; IV 1 mg/kg
  AUC(0-inf): 70.7 µg·h/mL
  AUC(0-t): 55.9 µg·h/mL
  C0: 6590 ng/mL
  Cmax: 6340 ng/mL
  Tmax: 0.083 h
  half-life: 10.4 h
  MRT last: 7.73 h
  MRT inf: 14.3 h
[1]; PO 6 mg/kg
  AUC(0-inf): 757 µg·h/mL
  AUC(0-t): 576 µg·h/mL
  Cmax: 41400 ng/mL
  Tmax: 1 h
  half-life: 11.6 h
  MRT last: 8.39 h
  MRT inf: 16.1 h
[1]
  bioavailability: 172%
[1]; intravenously at 1 mg/kg
  T1/2 and AUC(0-∞) in the whole body blood circulation system as compared to that of Ozagrel: significantly increased
[1]; orally at 6 mg/kg
  T1/2 and AUC(0-∞) in the whole body blood circulation system as compared to that of Ozagrel: significantly increased
[2]; rat brain, IV 1 mg/kg
  Cmax: 75.5 ng/g
  Tmax: 0.08 h
  half-life: 8.7 h
  MRT last: 7.19 h
  MRT inf: 11.5 h
  AUC(0−t): 633.23 ng·h/g
  AUC(0−∞): 741.29 ng·h/g
[2]; rat brain, PO 6 mg/kg
  Cmax: 460 ng/g
  Tmax: 1 h
  half-life: 8.36 h
  MRT last: 7.84 h
  MRT inf: 11.7 h
  AUC(0−t): 6454.78 ng·h/g
  AUC(0−∞): 7477.48 ng·h/g
[2]; intravenously at 1 mg/kg
  T1/2 and AUC(0-∞) in the brain tissue: significantly increased
[2]; orally at 6 mg/kg
  T1/2 and AUC(0-∞) in the brain tissue: significantly increased

## O=C(O)[C@@H]1C[C@H]1c1ccc(Cn2ccnc2)cc1 [Compound 19, (1R,2R)-2-(4-((1H-Imidazol-1-yl)methyl)phenyl)cyclopropane-1-carboxylic acid]
[1]; IV 1 mg/kg, read-out: Vss
  Vd: 0.16 L/kg
[1]; IV 1 mg/kg, read-out: Vz
  Vd: 0.2 L/kg
[1]; IV 1 mg/kg
  AUC(0-inf): 3.25 µg·h/mL
  AUC(0-t): 3.25 µg·h/mL
  C0: 6870 ng/mL
  Cmax: 5490 ng/mL
  Tmax: 0.083 h
  half-life: 0.44 h
  MRT last: 0.5 h
  MRT inf: 0.51 h
[1]; PO 6 mg/kg
  AUC(0-inf): 36.6 µg·h/mL
  AUC(0-t): 36.6 µg·h/mL
  Cmax: 27300 ng/mL
  Tmax: 0.25 h
  half-life: 0.72 h
  MRT last: 1.19 h
  MRT inf: 1.2 h
[1]
  bioavailability: 188%
[2]; rat brain, IV 1 mg/kg
  Cmax: 36 ng/g
  Tmax: 0.08 h
  half-life: 0.38 h
  MRT last: 0.35 h
  MRT inf: 0.56 h
  AUC(0−t): 16.44 ng·h/g
  AUC(0−∞): 19.83 ng·h/g
[2]; rat brain, PO 6 mg/kg
  Cmax: 168 ng/g
  Tmax: 0.25 h
  half-life: 0.77 h
  MRT last: 1.22 h
  MRT inf: 1.32 h
  AUC(0−t): 289.35 ng·h/g
  AUC(0−∞): 296.91 ng·h/g
